Source: paper PMC6273431, “The Structure–Antimicrobial Activity Relationships of a Promising Class of the Compounds Containing the N-Arylpiperazine Scaffold” (Molecules, 2016)
Where two headings read alike, the source gives them in different places.

Legend:
[1] = tested on: Mycobacterium avium subsp. paratuberculosis CIT03; test: antimycobacterial MIC, MB broth, alamarBlue; type: cell-based; conditions: 264 h, read-out: MIC MAP
Protocol: The Mycobacterium avium subsp. paratuberculosis CIT03 strain was grown in the Middlebrook (MB) broth, supplemented with the Oleic-Albumin-Dextrose-Catalase Supplement (OADC, Becton Dickinson, Oxford, UK) and the mycobactin J (2 μg/mL). The commercially available siderophore mycobactin J reduced the incubation period of M. avium subsp. paratuberculosis in a complex medium when compared to the medium containing the mycobactin P as a growth factor.
The identification of the isolate was performed using biochemical and molecular protocols. At a log phase growth, a culture sample (10 mL) was centrifuged at 15,000 rpm/20 min using a bench top centrifuge (Model CR 4-12, Jouan Inc., London, UK). Following removal of the supernatant, the pellet was washed in fresh Middlebrook 7H9GC broth and re-suspended in fresh supplemented MB broth (10 mL). The turbidity was adjusted to match the McFarland standard No. 1 containing approximately 3.0 × 10^8 Colony Forming Units (CFU) with the MB broth. Further 1:20 dilution of the culture was performed in the MB broth. The susceptibility of given mycobacterial species was investigated in a 96-well plate format. In those experiments, sterile deionised water (300 μL) was added to all outer-perimeter wells of the plates to minimize an evaporation of the medium in the test wells during the incubation process. Each evaluated compound (100 μL) was incubated with the mycobacterial species (100 μL). The dilutions of a particular compound were prepared in triplicate. For all inspected derivatives, final concentrations ranged from 1000 μg/mL to 60 μg/mL. All compounds were prepared in dimethyl sulfoxide (DMSO; Sigma-Aldrich, Irvine, UK) and subsequent dilutions were made in the supplemented MB broth. The plates were sealed with a parafilm and incubated at 37 °C for 11 days. Following the incubation, a 10% addition of a water‑soluble dye, the alamarBlue reagent (AbD Serotec, Kidlington, UK), was mixed into each well. Absorbance readings at 570 nm and 600 nm were taken, initially for background subtraction and after 24 h re-incubation. The subtraction is necessary for strongly coloured compounds, where the colour may interfere with the interpretation of any colour change. For non-interfering compounds, a blue colour in a well was interpreted as an absence of a growth and a pink colour was scored as a growth.
The minimum inhibitory concentration (MIC) was defined as the lowest concentration of the compound at which no visible bacterial growth was observed. In other words, the MIC was the lowest concentration that prevented a visual colour change from blue to pink. The MIC value has been routinely and widely used in bacterial assays and it has been a standard detection limit according to the Clinical and Laboratory Standards Institute. The clinically used antimycobacterial drugs INH and RIF were applied as the standards.

M. smegmatis ATCC 700084 = test: antimycobacterial MIC, broth dilution micromethod; type: cell-based; conditions: Mycolicibacterium smegmatis, ATCC700084, 72 h, 3 days at 37 °C
M. kansasii DSM 44162 = test: antimycobacterial MIC, broth dilution micromethod; type: cell-based; conditions: Mycobacterium kansasii, DSM44162, 168 h, 7 days at 37 °C
M. marinum CAMP 5644 = test: antimycobacterial MIC, broth dilution micromethod; type: cell-based; conditions: Mycobacterium marinum, CAMP5644, 504 h, 21 days at 28 °C
[2] = tested on: Enterococcus faecalis ATCC 29212; test: antibacterial MIC, microtitration broth method; type: cell-based; conditions: 37 °C
Protocol: (§1) Prior to the testing, each strain was transferred into a nutrient agar (Oxoid Limited, Basingstoke, UK), which was enriched with 5% defibrinated bovine blood.
(§2) The MICs were determined by the microtitration broth method in the cation-adjusted Mueller-Hinton broth (Becton Dickinson, Oxford, UK) according to an international interdisciplinary Clinical Laboratory Standard Institute guidelines.
(§3) The checkerboard was inoculated by the bacterial inocula, which were prepared in a phosphate buffered saline solution with the pH = 7.2–7.3 to simulate physiological pH. The final concentration of each inoculum in the final volume of 100 μL in the wells was approximately 7.5 × 10^6 CFU/mL. Drug-free controls, sterility controls and the controls consisted of the broth with DMSO were included. The determination of the results was performed visually after 24 h of static incubation in the darkness at 37 °C in an aerobic atmosphere.
(§4) To ensure reproducibility, each antibacterial MIC assay was performed triplicate on separate occasions.

[3] = tested on: Escherichia coli ATCC 25922; test: antibacterial MIC, microtitration broth method; type: cell-based; conditions: 37 °C
Protocol: as §1, §2, §3, §4

[4] = tested on: Staphylococcus aureus ATCC 29213; test: antibacterial MIC, microtitration broth method; type: cell-based; conditions: 37 °C
Protocol: as §1, §2, §3, §4

[5] = tested on: methicillin-resistant Staphylococcus aureus 63718; test: antibacterial MIC, microtitration broth method; type: cell-based; conditions: MRSA, 37 °C
Protocol: as §1, §2, §3, §4

[6] = tested on: Candida albicans CCM 8261; test: candidacidal MIC, microdilution method; type: cell-based; conditions: Candida albicans, CCM8261, 48 h, 37 °C
Protocol: (§5) In order to provide a look into the potential usefulness of the derivatives 5a–l as the candidates for a development of anti-yeast (candidacidal) agents, they were in vitro tested against Candida albicans CCM 8261 (CA 8261), C. krusei CCM 8271 (CK 8271) and C. parapsilosis CCM 8260 (CP 8260). The yeasts were obtained from the Czech Collection of Microorganisms (Masaryk University, Faculty of Science, Brno, Czech Republic). They were grown and kept on Sabouraud agar (Oxoid Limited, Basingstoke, UK).
(§6) For the screening, the microdilution method according to the Antimicrobial Susceptibility Testing Protocols was applied. The inoculum was prepared from the cultures grown on Sabouraud agar. With the sterile solution of NaCl, the inoculum was prepared to the 0.5 McFarland units using the Densi-La-Meter densitometer (LIAP, Riga, Latvia) and diluted a thousand‑fold with the Roswell Park Memorial Institute (RPMI) 1640 medium (Sigma-Aldrich, Darmstadt, Germany). Prepared suspension was used for an inoculation of microtitre plates. Final concentration in wells ranged from 5.0 × 10^2 CFU/mL to 2.5 × 10^3 CFU/mL. […] For the determination of the MICs, the stock solutions of all the tested compounds were diluted in the microtitre checkerboard to the final concentration varying from 128 μg/mL to 0.125 μg/mL. Drug-free control, sterility control and the control consisted of a medium and DMSO alone were included. Inoculated microtitre plates were incubated for 48 h in the darkness at 37 °C in an aerobic atmosphere. The results were estimated against static light.
(§7) The MIC was defined as the lowest concentration of the tested compound at which no visible growth was observed. To ensure reproducibility of the results, each candidacidal MIC assay was performed triplicate on separate occasions. It was important to note that all the MICs from the in vitro antimicrobial screening were expressed in μg/mL units and were available in Tables S3 and S4 (Supplementary Materials).

Candida krusei CCM 8271 = test: candidacidal MIC, microdilution method; type: cell-based; conditions: Pichia kudriavzevii, CCM8271, 48 h, 37 °C
Protocol: as §5, §6, §7

[7] = tested on: Candida parapsilosis CCM 8260; test: candidacidal MIC, microdilution method; type: cell-based; conditions: Lodderomyces parapsilosis, CCM8260, 48 h, 37 °C
Protocol: as §5, §6, §7

[8] = set-up: method as in PMID 16209439, PMID 16209439; conditions: potentiometric titration; cited from earlier work
[9] = set-up: method as in PMID 16209439, PMID 16209439, doi:10.2478/s11696-006-0007-y; conditions: octan-1-ol/phosphate buffer (pH = 7.4); cited from earlier work

Row | SMILES | MIC ([1]; 37 °C, 11 days) [µM] | MIC [1] [µg/mL] | MIC (M. smegmatis ATCC 700084) [µM] | MIC (M. smegmatis ATCC 700084; Table S3) [µg/mL] | MIC (M. kansasii DSM 44162) [µM] | MIC (M. kansasii DSM 44162; Table S3) [µg/mL] | MIC (M. marinum CAMP 5644) [µM] | MIC (M. marinum CAMP 5644; Table S3) [µg/mL] | MIC ([2]; ATCC29212, 24 h) [µM] | MIC ([2]; ATCC29212, Table S4, 24 h) [µg/mL] | MIC ([3]; ATCC25922, 24 h) [µM] | MIC ([3]; ATCC25922, Table S4, 24 h) [µg/mL] | MIC ([4]; ATCC29213, 24 h) [µM] | MIC ([4]; ATCC29213, Table S4, 24 h) [µg/mL] | MIC ([5]; 24 h) [µM] | MIC ([5]; Table S4, 24 h) [µg/mL] | MIC [6] [µM] | MIC ([6]; Table S4) [µg/mL] | MIC (Candida krusei CCM 8271) [µM] | MIC (Candida krusei CCM 8271; Table S4) [µg/mL] | further results
1 | COc1cccc(NC(=O)OCC(O)CN2CCN(c3cccc(C(F)(F)F)c3)CC2)c1 (stereo not drawn) [Compound 5c] | 1020 | 500 | 523 | 256 | 131 | 64 | 131 | 64 | > 523 | > 256 | > 523 | > 256 | > 523 | > 256 | > 523 | > 256 | > 261 | > 128 | > 261 | > 128 | MIC [7]: > 261 µM; MIC ([7]; Table S4): > 128 µg/mL; pKa [8]: 5.73; log Pexp [9]: 3.61
2 | CCOc1cccc(NC(=O)OCC(O)CN2CCN(c3cccc(C(F)(F)F)c3)CC2)c1.Cl (stereo not drawn) [Compound 5d, 1-[3-(3-ethoxyphenylcarbamoyl)oxy-2-hydroxypropyl]-4-(3-trifluoromethylphenyl)piperazin-1-ium chloride] | 1980 | 1000 | 127 | 64 | 31.8 | 16 | 127 | 64 | > 508 | > 256 | > 508 | > 256 | > 508 | > 256 | > 508 | > 256 | > 254 | > 128 | > 254 | > 128 | MIC [7]: > 254 µM; MIC ([7]; Table S4): > 128 µg/mL; pKa [8]: 5.35; log Pexp [9]: 3.72
3 | COc1ccc(NC(=O)OCC(O)CN2CCN(c3cccc(C(F)(F)F)c3)CC2)cc1 (stereo not drawn) [Compound 5e, 1-{2-hydroxy-3-(4-methoxyphenylcarbamoyl)oxy)propyl}-4-(3-trifluoromethylphenyl)piperazin-1-ium chloride] | 1020 | 500 | 523 | 256 | 65.3 | 32 | 65.3 | 32 | > 523 | > 256 | > 523 | > 256 | > 523 | > 256 | > 523 | > 256 | > 261 | > 128 | > 261 | > 128 | MIC [7]: > 261 µM; MIC ([7]; Table S4): > 128 µg/mL; pKa [8]: 5.66; log Pexp [9]: 3.60
4 | CCOc1ccc(NC(=O)OCC(O)CN2CCN(c3cccc(C(F)(F)F)c3)CC2)cc1 (stereo not drawn) [Compound 5f] | 992 | 500 | 508 | 256 | 508 | 256 | 254 | 128 | > 508 | > 256 | > 508 | > 256 | > 508 | > 256 | > 508 | > 256 | > 254 | > 128 | > 254 | > 128 | MIC [7]: > 254 µM; MIC ([7]; Table S4): > 128 µg/mL; pKa [8]: 5.69; log Pexp [9]: 3.71
